Experimental data as given in publication PMC10454375, “Cell-Impermeable Inhibitors Confirm That Intracellular Human Transglutaminase 2 Is Responsible for the Transglutaminase-Associated Cancer Phenotype” (International Journal of Molecular Sciences, 2023).
Peptide text beside a SMILES is read from it. * marks the point of attachment. X1 = C=CC(=O)NCCCCC(NC(=O)OCc1ccccc1)C(=O)N1CCN(C(=O)C(CCC(=O)*)NC(=O)c2cccc3ccccc23)CC1

Experiments:
FXIIIa = biological target: T1, FXIIIa (Homo sapiens, UniProt P00488); assay: TGase isozyme selectivity, FXIIIa with A101 substrate; assay type: biochemical; conditions: [I]/α identical to that of the TG2 assay
T1 construct: purchased Zedira GmbH (Darmstadt, Germany)
T1 sequence (P00488 39-732 limits assumed): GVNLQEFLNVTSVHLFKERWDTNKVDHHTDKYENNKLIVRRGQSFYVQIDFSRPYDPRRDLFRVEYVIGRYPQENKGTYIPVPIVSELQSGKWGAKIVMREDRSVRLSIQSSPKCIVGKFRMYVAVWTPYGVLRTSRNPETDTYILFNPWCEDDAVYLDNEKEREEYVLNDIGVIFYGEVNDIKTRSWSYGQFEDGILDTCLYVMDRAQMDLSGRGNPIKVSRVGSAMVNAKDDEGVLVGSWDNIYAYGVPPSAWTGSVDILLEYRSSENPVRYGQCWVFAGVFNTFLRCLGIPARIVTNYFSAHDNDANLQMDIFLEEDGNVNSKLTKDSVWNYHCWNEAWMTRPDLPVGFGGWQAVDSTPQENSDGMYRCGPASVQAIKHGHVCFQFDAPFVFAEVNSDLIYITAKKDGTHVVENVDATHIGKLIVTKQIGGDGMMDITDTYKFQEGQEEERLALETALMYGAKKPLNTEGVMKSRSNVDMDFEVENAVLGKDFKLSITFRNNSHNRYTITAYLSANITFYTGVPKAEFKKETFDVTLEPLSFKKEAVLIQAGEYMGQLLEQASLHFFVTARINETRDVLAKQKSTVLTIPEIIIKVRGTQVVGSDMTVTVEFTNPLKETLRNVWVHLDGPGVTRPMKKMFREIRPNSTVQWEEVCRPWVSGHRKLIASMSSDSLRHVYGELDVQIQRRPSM
Source text: (§1) In the development of probes for TGases, isozyme selectivity is always a significant challenge. Since the catalytic machinery of the active sites of all TGases features a conserved Gly-Gln-Cys-Trp-Val sequence, selectivity for one isozyme over the others requires exploitation of slight differences in the protein substrate binding sites. In order to assess the isozyme selectivity of our cell-impermeable inhibitors, TG2 and four other therapeutically relevant TGases (Factor XIII, TG1, TG3, and TG6) were exposed to a concentration of inhibitor representing the same apparent competition with respect to the assay substrate (AL5 [38] or A101 [42, 43]). In other words, both the substrate and inhibitor concentrations were varied so that the [I]/α values were identical. […] This provides confidence that in further applications, these cell-impermeable inhibitors will selectively target TG2 over other transglutaminases.
(§2) To monitor the activity of TG3a and TG6, a FRET-quenched substrate A101 (Zedira Gmbh) was used. […] The isopeptidase activity of the respective TGase was then monitored at Ex/Em = 313/418 nm with a BioTek Synergy 4 plate reader at 25 °C. […]

TG3a = biological target: T2, TG3a (Homo sapiens, UniProt Q08188); assay: TGase isozyme selectivity, TG3a with A101 substrate; assay type: biochemical; conditions: [I]/α identical to that of the TG2 assay
T2 construct: purchased Zedira GmbH (Darmstadt, Germany)
T2 sequence (Q08188 2-467 limits assumed): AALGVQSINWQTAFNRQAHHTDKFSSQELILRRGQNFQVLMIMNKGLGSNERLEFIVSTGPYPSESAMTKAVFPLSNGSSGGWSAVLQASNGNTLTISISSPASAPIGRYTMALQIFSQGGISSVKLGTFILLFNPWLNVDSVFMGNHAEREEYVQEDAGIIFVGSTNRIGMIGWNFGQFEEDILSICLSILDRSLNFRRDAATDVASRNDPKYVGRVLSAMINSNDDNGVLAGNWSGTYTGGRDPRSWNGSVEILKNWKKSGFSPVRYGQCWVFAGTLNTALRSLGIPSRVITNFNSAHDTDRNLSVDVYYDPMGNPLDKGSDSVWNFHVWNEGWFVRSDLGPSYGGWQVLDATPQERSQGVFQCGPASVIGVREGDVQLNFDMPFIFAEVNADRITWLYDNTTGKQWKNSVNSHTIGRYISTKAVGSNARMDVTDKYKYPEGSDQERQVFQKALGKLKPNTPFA
T2 sequence (Q08188 468-693 partner limits assumed): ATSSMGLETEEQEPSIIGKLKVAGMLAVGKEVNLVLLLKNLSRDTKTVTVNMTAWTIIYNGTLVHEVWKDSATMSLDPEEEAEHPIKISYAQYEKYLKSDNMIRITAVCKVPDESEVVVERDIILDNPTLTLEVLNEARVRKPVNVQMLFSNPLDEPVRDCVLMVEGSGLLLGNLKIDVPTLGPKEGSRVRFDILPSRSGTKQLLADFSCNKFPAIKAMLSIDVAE
Source text: as §1, §2

| Compound | inhibition of Factor XIII (FXIIIa) | inhibition of TG3 (TG3a) |
| --- | --- | --- |
| C=CC(=O)NCCCCC(NC(=O)OCc1ccccc1)C(=O)N1CCN(C(=O)C(CCC(=O)NCCCCCC(=O)NC(CC(=O)O)C(=O)NC(CC(=O)O)C(=O)NC(CC(=O)O)C(=O)O)NC(=O)c2cccc3ccccc23)CC1 (stereo not shown) [Compound 17] | no detectable inhibition | no detectable inhibition |
| C=CC(=O)NCCCCC(NC(=O)OCc1ccccc1)C(=O)N1CCN(C(=O)C(CCC(=O)NCC(=O)NCC(=O)NCC(=O)NC(CC(=O)O)C(=O)NC(CC(=O)O)C(=O)NC(CC(=O)O)C(=O)O)NC(=O)c2cccc3ccccc23)CC1 (stereo not shown) [Compound 18] (X1-GGGDDD-OH; configuration not given here) | no detectable inhibition | no detectable inhibition |
